Reference: article PMC10213797 (Acta Pharmaceutica Sinica. B, 2023)

Key:
hBChE [1] = biological target: T1, hBChE (Homo sapiens, UniProt P06276); test: hBChE inhibition, Ellman's method; type: biochemical; settings: hBChE IC50, abstract
hBChE [2] = biological target: T1, hBChE; test: hBChE inhibition kinetics, progress curves of BTCI hydrolysis; type: biochemical; settings: 50 μmol/L BTCI, 25 °C, pH 7.0
[3] = biological target: T2, purified recombinant hMAO-B (Homo sapiens, UniProt P27338); test: hMAO-B steady-state kinetics, direct MMTP assay; type: biochemical; settings: MMTP substrate
T2 sequence (P27338 1-520): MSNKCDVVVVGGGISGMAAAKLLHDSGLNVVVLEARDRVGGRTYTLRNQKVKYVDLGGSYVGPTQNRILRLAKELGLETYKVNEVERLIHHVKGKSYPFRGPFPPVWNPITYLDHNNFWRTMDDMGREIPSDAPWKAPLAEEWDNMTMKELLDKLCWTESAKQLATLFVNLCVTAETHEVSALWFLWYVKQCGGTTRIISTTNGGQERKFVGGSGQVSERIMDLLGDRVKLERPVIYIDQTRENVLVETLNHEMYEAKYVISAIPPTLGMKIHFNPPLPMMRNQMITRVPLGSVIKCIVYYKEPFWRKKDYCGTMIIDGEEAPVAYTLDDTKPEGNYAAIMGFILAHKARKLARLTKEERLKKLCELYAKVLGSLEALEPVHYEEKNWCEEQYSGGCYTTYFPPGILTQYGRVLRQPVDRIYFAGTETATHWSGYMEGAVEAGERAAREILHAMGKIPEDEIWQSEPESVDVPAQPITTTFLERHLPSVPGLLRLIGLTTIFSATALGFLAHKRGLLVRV

[4] = DPPH radical-scavenging assay; settings: read-out: Radical-scavenging DPPH assay EC50; means ± SEM (n = 2, in triplicates)
Aβ1–42 = Aβ1–42 (Homo sapiens, UniProt P05067); test: Aβ1–42 aggregation inhibition, ThT fluorescence assay; type: biochemical
Sequence of Aβ1–42 (P05067 672-713): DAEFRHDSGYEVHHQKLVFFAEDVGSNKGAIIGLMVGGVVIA

[5] = Metal chelation, UV–Vis spectra and Cu2+ titration; type: physicochemical; settings: 30 μmol/L QN, equimolar metal ion, HEPES pH 7.4
SH-SY5Y cells = test: Metabolic activity, MTS assay, SH-SY5Y; type: cell-based; settings: 24 h, 1–100 μmol/L
HepG2 cells = test: Metabolic activity, MTS assay, HepG2; type: cell-based; settings: HepG2, 24 h, 1–100 μmol/L
microglial BV2 cells = test: Cytotoxicity, 7-AAD flow cytometry, BV2; type: cell-based; settings: at 10 μmol/L; sentence does not say which of SH-SY5Y/BV2
[6] = system: SH-SY5Y cells treated with 6-OHDA; test: Neuroprotection against 6-OHDA toxicity, 7-AAD; type: cell-based; settings: 100 μmol/L 6-OHDA
LPS-activated BV2 cells [7] = test: Neuroprotection in LPS-induced BV2 neuroinflammation model, 7-AAD; type: cell-based; settings: BV2, LPS 1 μg/mL, 19 at 0.5–5 μmol/L
LPS-activated BV2 cells [8] = test: Nitrite quantification, Griess assay, LPS-stimulated BV2; type: cell-based; settings: BV2, LPS 1 μg/mL, 19 at 5 μmol/L
mice = test: Rotarod test; type: in vivo; settings: 30 mg/kg i.p.; 6, 18, and 24 rpm
BBB-PAMPA permeability = settings: PAMPA, pH 7.4, BBB–PAMPA permeability Papp (mean ± SD), pH 7.4, 4 h, 25 °C, brain sink buffer
[9] = system: APPSwe/PS1δE9 double transgenic mice; test: Aβ plaque load after chronic treatment, Thioflavin S staining; settings: male and female mice at 10 months of age, 0.62 mg/kg/day, 4-month treatment

T1 sequence (P06276 29-602): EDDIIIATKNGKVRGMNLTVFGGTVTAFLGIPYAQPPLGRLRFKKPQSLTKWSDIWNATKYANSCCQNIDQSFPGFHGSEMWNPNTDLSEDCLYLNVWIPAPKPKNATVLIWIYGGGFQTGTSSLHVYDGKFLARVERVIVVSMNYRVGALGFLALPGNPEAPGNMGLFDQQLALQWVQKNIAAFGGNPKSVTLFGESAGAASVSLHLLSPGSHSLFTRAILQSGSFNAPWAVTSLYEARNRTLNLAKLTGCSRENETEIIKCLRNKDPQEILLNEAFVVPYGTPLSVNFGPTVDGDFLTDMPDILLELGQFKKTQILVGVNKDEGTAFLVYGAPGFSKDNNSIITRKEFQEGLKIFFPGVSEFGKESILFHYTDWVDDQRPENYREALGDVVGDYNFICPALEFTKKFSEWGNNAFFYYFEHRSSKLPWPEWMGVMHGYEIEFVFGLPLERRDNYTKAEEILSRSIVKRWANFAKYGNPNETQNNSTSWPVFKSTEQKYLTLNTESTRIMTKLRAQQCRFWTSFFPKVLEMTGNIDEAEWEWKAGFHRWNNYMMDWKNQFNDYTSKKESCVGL

Structure (SMILES): [O-]/[N+](=C\c1ccc2cccc(O)c2n1)Cc1ccccc1 [QN 19, (Z)-N-Benzyl-1-(8-hydroxyquinolin-2-yl)methanimine oxide]
- IC50 (hBChE [1]): 0.00106 ± 0.00031 µM
- Kii, dissociation constant for binding of the second molecule to hBChE (hBChE [2]): 14.5 nmol/L
- mode of hMAO-B inhibition (best fit) [3]: competitive inhibition model
- EC50 [4]: 126 ± 0.1 µM
- Inhibition of Aβ1–42 aggregation (Aβ1–42; 10 μmol/L ligand and 1.5 μmol/L Aβ1–42, mean ± SD (n ≥ 3)): n.i. ^e (n.i., no inhibition <20%)
- inhibition of self-induced aggregation of Aβ1–42 (in words) (Aβ1–42; ThT fluorescence assay): inactive
- chelation of Ca^2+ and Mg^2+ [5]: did not chelate
- complexes with Zn^2+, Cu^2+, Al^3+, Fe^2+ and Fe^3+ [5]: generated corresponding complexes
- concentrations at which metabolic activity is reduced (MTS) (SH-SY5Y cells): higher than 10 μmol/L
- concentrations at which metabolic activity is reduced (MTS) (HepG2 cells): higher than 10 μmol/L
- cell viability (7-AAD) (microglial BV2 cells): reduced cell viability to a significant extent
- cell viability under 6-OHDA co-treatment ([6]; 19 at 0.5 and 1 μmol/L): increased cell viability
- neuroprotective activity under 6-OHDA co-treatment ([6]; 19 at 2.5 and 5 μmol/L): neuroprotective activity was lost
- neuroprotective effects on cell viability, LPS model (LPS-activated BV2 cells [7]): No neuroprotective effects on cell viability
- LPS-induced nitrite concentration (LPS-activated BV2 cells [8]): reduced LPS-induced increase in nitrite concentration
- motor impairments in the rotarod test (mice): did not result in any motor impairments
- Papp at 4 h, 100 μmol/L (BBB-PAMPA permeability): ≥ 37.2 ×10⁻⁶ cm/s
- effect on Aβ plaques of chronic treatment started later [9]: inefficient
